The values below come from patent EP4707280A1, “1,4-CINEOLE DERIVATIVE AND INTERMEDIATE THEREOF, HERBICIDE CONTAINING SAID DERIVATIVE AS ACTIVE INGREDIENT, METHOD FOR USING HERBICIDE, AND METHOD FOR PREPARING AGROCHEMICAL COMPOSITION” (HOKKO CHEMICAL INDUSTRY CO., LTD., priority 2023, dated 2024).

What all share (type): in vivo
The test system of experiment [1] is Lindernia pyxidaria. Kind of experiment: Test Example 6: herbicidal effect test by application during growth period of paddy rice (low dose). The settings on record: 7.5 g per 10 ares, applied seven days after sowing, flooded pots, 14 days after application, read-out: weed inhibition rate. The gist of the method: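 Puddled, fertilised paddy soil was sown with 30 seeds per species and flooded to about 3 cm. After 7 days in a glass greenhouse, the diluted emulsifiable concentrate went into the water by dropper at 7.5 g/10 a. Effect scored at 14 days.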

For experiment [2], the system named is Chenopodium album. Kind of experiment: Test Example 7: herbicidal effect test by soil application in upland field (low dose). The settings on record: 7.5 g per 10 ares, sprayed one day after sowing, 14 days after application, read-out: weed inhibition rate. The gist of the method: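 Duplicate pots of alluvial loam, seeds incorporated in the surface 1 cm. Soil surface sprayed 1 d after sowing (EC in water, 100 L/10 a; 7.5 g a.i./10 a). Endpoint: % inhibition, day 14.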

Experiment [3] deals with Amaranthus viridis. Put plainly: Test Example 8: herbicidal effect test by stem and leaf treatment in upland field (low dose). The settings on record: 7.5 g per 10 ares, sprayed seven days after sowing, upland soil, 14 days after application, read-out: weed inhibition rate. The gist of the method: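 Duplicate alluvial-loam pots (36 cm^2), seeded in the top 1 cm and grown seven days, were sprayed with diluted emulsifiable concentrate at 7.5 g a.i. per 10 ares (100 L per 10 ares). Percent inhibition was assessed at 14 days post-treatment.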

A word on the inhibition: it is the share of the control response that was lost under treatment.

Bounds are passed on as bounds.

Take `CC(C)[C@]12C[C@@H](OCc3ccccc3F)[C@](C)(CC1OCC1CC1)O2` (mixture of isomers) [1-921, (1S,2R,4R,SR)-5-(cyclopropylmethoxy)-2-[(2-fluorophenyl)methoxy]-1-methyl-4-isopropyl-7-oxabicyclo[2.2.1]heptane]: the inhibition at 75 g/ha in experiment [1], in experiment [2] and in experiment [3] was at least 80% in each case.

`CC(C)[C@]12C[C@@H](OCc3c(F)cccc3F)[C@](C)(C[C@@H]1F)O2` [1-7, (1S,2R,4R,5S)-2-((2,6-difluorobenzyl)oxy)-5-fluoro-4-isopropyl-1-methyl-7-oxabicyclo[2.2.1]heptane]: the inhibition at 75 g/ha in experiment [2] was at least 80%.

Regarding `CC(C)[C@]12C[C@@H](OCc3c(F)cccc3F)[C@](C)(CC1=O)O2` [2-20, (1R,4S,5R)-5-((2,6-difluorobenzyl)oxy)-1-isopropyl-4-methyl-7-oxabicyclo[2.2.1]heptan-2-one], the inhibition at 75 g/ha in experiment [1] was at least 80%.

On to `Cc1ccccc1CO[C@@H]1C[C@]2(C(C)C)O[C@@]1(C)C[C@@H]2F` [1-2, (1R,2S,4S,5R)-2-fluoro-1-isopropyl-4-methyl-5-((2-methylbenzyl)oxy)-7-oxabicyclo[2.2.1]heptane], for which the inhibition at 75 g/ha in experiment [3] is at least 80%.

On to `C=C1C[C@]2(C)O[C@@]1(C(C)C)C[C@H]2OCc1ccccc1F` [2-88, (1R,4S,5R)-5-((2-fluorobenzyl)oxy)-1-isopropyl-4-methyl-2-methylene-7-oxabicyclo[2.2.1]heptane], for which the inhibition at 75 g/ha in experiment [2] is at least 80%.

For the compound `C#CCO[C@@H]1C[C@]2(C)O[C@@]1(C(C)C)C[C@H]2OCc1ccccc1F` [1-931, (1S,2R,4R,5R)-2-[(2-fluorophenyl)methoxy]-1-methyl-4-isopropyl-5-prop-2-ynoxy-7-oxabicyclo[2.2.1]heptane], the inhibition at 75 g/ha in experiment [1] and in experiment [3] was at least 80% in each case.

With `C=C1C[C@]2(C)O[C@@]1(C(C)C)C[C@H]2OCc1ccccc1C` [2-72, (1R,4S,5R)-1-isopropyl-4-methyl-5-((2-methylbenzyl)oxy)-2-methylene-7-oxabicyclo[2.2.1]heptane], the inhibition at 75 g/ha in experiment [2] is at least 80%.

For `C=CCO[C@@H]1C[C@]2(C)O[C@@]1(C(C)C)C[C@H]2OCc1ccccc1F` [1-930, (1S,2R,4R,5R)-2-[(2-fluorophenyl)methoxy]-1-methyl-4-isopropyl-5-prop-2-enoxy-7-oxabicyclo[2.2.1]heptane], the inhibition at 75 g/ha in experiment [1], in experiment [2] and in experiment [3] was at least 80% in each case.
